The text below walks through data of patent publication US20240108654A1, “COMBINATION OF A T CELL THERAPY AND A DGK INHIBITOR” (Juno Therapeutics, Inc., priority 2021, published 2024).

One test has as its system Human venous whole blood. Put plainly: Human whole blood IFN-γ assay. The note with it: anti-CD3 and anti-CD28 1 μg/mL each, 24 hours; 3 μM reference compound as 100% activation; read-out: INFg Whole Blood Normalized Agonist EC50. It is filed as cell-based. As for the experimental part:
Human venous whole blood (22.5 μL per well), obtained from healthy donors, was pre-treated with compounds for one hour at 37° C. in a humidified 95% air/5% CO2 incubator. The blood was stimulated with 2.5 μL anti-human CD3 and anti-CD28 mAb at a final concentration of 1 μg/mL each for 24 hours at 37° C. IFN-γ in the supernatants was measured using ALphLISA kit (Cat #AL217).

Test [1] concerns anti-CD19 CAR-expressing T cells. Put plainly: T cell proliferation during acute stimulation with plate-bound anti-CAR anti-idiotypic antibody (Incucyte confluence). It is filed as cell-based, human. The note with it: 30 μg/mL plate-bound anti-idiotypic antibody, seven days, compound present during stimulation. The method, then: T cell proliferation during stimulation with 30 μg/mL of plate-bound anti-CAR anti-idiotypic antibody in the presence of Compound 17 was monitored for seven days using an Incucyte imaging system. Cell proliferation was monitored by analyzing the occupied area (% confluence) of cell images over time; as cells proliferate, the confluence increases.
Triplicate values for cell compositions manufactured from the two different healthy donors are shown.

The test system is the same in test [2]. As to the kind of experiment: Cytokine production (MSD) of CAR-T cells concurrently treated during chronic stimulation, 2D co-culture. As to conditions: concurrent treatment during chronic stimulation; 48 hours 2D co-culture with K562.CD19, Granta-519, Raji. It is filed as cell-based, human. The method, then: (§1) To simulate conditions of chronic stimulation, approximately 20,000 anti-CD19 CAR-expressing T cells of a combined CAR-T cell composition produced as described in Example 1 from two healthy adult donors were incubated with 30 μg/mL of plate-bound CAR-specific anti-idiotypic antibody (see, e.g., WO2018/023100) at 37° C. for a period of seven days. During this seven-day period, engineered CAR T cells were concurrently treated with Compound 17 (0.1-1000 nM) or a vehicle control added at day 0.
Stimulated CAR T cells were then re-challenged with CD19-expressing tumor cells or tumor spheroids in the absence of Compound 17, and cytolytic activity and cytokine production were assessed.
(§2) Supernatant was collected after 48 hours from the above co-cultures of chronically stimulated CAR-expressing T cells and CD19-expressing tumor cells. Cytokine production was measured from the supernatant by meso scale discovery (MSD) analysis of the collected cell supernatants. […] Duplicate values for cell compositions manufactured from the two different healthy donors are shown.

For test [3] the test system is unchanged. Put plainly: Cytokine production (MSD) of CAR-T cells concurrently treated during chronic stimulation, 3D tumor spheroids. The note with it: concurrent treatment during chronic stimulation; five days 3D co-culture with A549.CD19 and Granta-519 spheroids. It is filed as cell-based, human. As for the experimental part: as §1
To further assess activity of chronically stimulated cell, the chronically stimulated CAR-T cells that had been concurrently treated with DGKi were incubated with A549 CD19+ tumor spheroids or Granta-519 tumor spheroids to rechallenge the CAR-T cells at an effector to target ratio of 1:2 for up to 14 days. The tumor spheroids were engineered to express a red fluorescent dye to permit monitoring of tumor cell lysis by microscopy during the assay.
(§3) Supernatant was collected at day 5 from the above tumor spheroid cultures with chronically stimulated CAR-expressing T cells. Cytokine production was measured from the supernatant by meso scale discovery (MSD) analysis of the collected cell supernatants. […] Duplicate values for cell compositions manufactured from the two different healthy donors are shown.

The test system is the same in test [4]. As to the kind of experiment: Rescue treatment of chronically stimulated CAR-T cells: cytokine production (MSD), 2D co-culture. The format is cell-based, human. As to conditions: 48 hours 2D co-culture with K562.CD19, Granta-519, Raji. The method, then:
(§4) Anti-CD19 CAR-expressing T cells, produced as described in Example 1, were chronically stimulated with plate-bound CAR-specific anti-idiotypic antibody for seven days as described in Example 2, but in the absence of Compound 17 during chronic stimulation. Instead, chronically stimulated CAR T cells were treated with Compound 17 during re-challenge with CD19-expressing tumor cells, after which cytolytic activity and cytokine production were assessed.
as §2

The test system is the same in test [5]. As to the kind of experiment: Rescue treatment of chronically stimulated CAR-T cells: cytokine production (MSD), 3D tumor spheroids. It is filed as cell-based, human. The note with it: five days 3D co-culture with A549.CD19 and Granta-519 spheroids. As for the experimental part:
as §4, §3

A further test deals with anti-HPV16 eTCR T cells. As to the kind of experiment: Proliferation (cell counts) of chronically stimulated eTCR T cells re-stimulated with anti-Vbeta antibody. It is filed as cell-based, human. The note with it: re-stimulation 7 days with 20 μg/mL anti-Vbeta, 100 nM compound. From the text: Primary human CD4+ and CD8+ T cells were isolated from healthy donors by immunoaffinity-based methods. The isolated CD4+ and CD8+ T cells were combined and stimulated with an anti-CD3/anti-CD28 reagent, and then were transduced with a lentiviral vector encoding an anti-human papillomavirus 16 (anti-HPV16) eTCR. The nucleotide sequences encoding the beta chain and the alpha chain of the eTCR were separated by a sequence encoding a 2A ribosome skip element. Following transduction, the cells were cultured in media containing human serum and cytokines for 9-10 days prior to further assessment. In another experiment to assess activity of the DGKi to rescue or reverse exhaustion, eTCR T cells were chronically stimulated for 6 days as described above in the absence of Compound 17. […] As a control, chronically stimulated eTCR T cells were re-stimulated in the absence of Compound 17 for 7 days. At the end of the 7 day re-stimulation, cell counts were determined. […] As expected, in the absence of treatment with Compound 17, there was an overall reduction in the ability of chronically stimulated T cells to proliferate compared to fresh eTCR T cells (compare conditions (1) and (3)).

For the compound `CC[C@H]1CN([C@@H](CC)c2ccc(C(F)(F)F)cc2)[C@H](CC)CN1c1nc(=O)n(C)c2ccc(C#N)nc12` [Compound 17, 4-((2S,5R)-2,5-diethyl-4-((S)-1-(4-(trifluoromethyl)phenyl)propyl)piperazin-1-yl)-1-methyl-2-oxo-1,2-dihydropyrido[3,2-d]pyrimidine-6-carbonitrile], the EC50 in the test on Human venous whole blood came out at 0.02 µM. Besides, the “T cell proliferation (% confluence)” value in test [1] was “did not affect T cell proliferation”. For the same compound, the “production of IFNγ, IL-2 and TNFα in supernatant” value in test [2], in test [3], in test [4] and in test [5] was “dose-dependent increase in production of all three cytokines” in each case. Further, the “proliferation of eTCR T cells (cell counts)” value in the test on anti-HPV16 eTCR T cells is “increased proliferation”.

One may read the EC50 as the midpoint of the concentration-response curve.
